According to US5010174A, “Novel calcitonin derivative and salt thereof” (Mitsubishi Petrochemical Co., Ltd., priority 1987, dated 1991):

How the values were obtained:
[1] = Biological activity (calcitonin activity, MRC U/mg), assayed by the method of Japanese Provisional Patent Publication No. 123500/1985; type: in vivo; details: for biological activity: method of Japanese Provisional Patent Publication No. 123500/1985; for biological activity, in words, compared with Example 1: measured as in Example 1
Experimental: The crude (Oct^1, Cys(CA)^7)-CCT obtained was dissolved in a 1 M acetic acid (5 mg/ml) and purified by the reverse phase high performance liquid chromatography. Chemcopack ODS-H (trade name, .phi.: 10 mm×250 mm) column produced by Chemco Co. was used, with the eluents employed being water (100) - 10% TFA (1) for the eluent A and water (40)-acetonitrile (60) - 10% TFA (1) for the eluent B, and the elution was effected under the linear concentration gradient from the eluent A to the eluent B. Here, the numerals within bracckets represent volume ratios. The fraction corresponding to (Oct^1, Cys(CA)^7)-CCT was collected and lyophilized to obtain 2.8 mg of white powder. The biological activity of the white powder obtained was assayed according to the method as described in Japanese Provisional Patent Publication No. 123500/1985.

[2] = Stability test: heating in sodium citrate buffer, remaining peptide by reverse phase HPLC; details: for Stability (ratio of eluted peak area A after heating to area B without heat treatment): 0.1 M sodium citrate buffer pH 6.0, 10 μg/ml, sealed tube, 80° C., 24 hours, reverse phase HPLC
Experimental: The (Oct^1, Cys(CA)^7)-CCT was dissolved in 0.1 M sodium citrate buffer (pH 6.0) to a concentration of 10 μg/ml. One ml of this solution was left to stand in a sealed tube at 80° C. for 24 hours. By analysis according to the reverse phase HPLC by use of the measurement conditions (1), the eluted peak area A of the remaining (Oct^1, Cys(CA)^7)-CCT was determined. Similarly, the eluted peak area B of the (Oct^1, Cys(CA)^7)-CCT in the sample solution not subjected to the heat treatment was determined, and the ratio of A to B (%) was defined as the index.

(Oct^1, Ala^3, Cys(CA)^7)-CCT
biological activity [1]: 6100 MRC U/mg
Stability (ratio of eluted peak area A after heating to area B without heat treatment) [2]: 90%

(Oct^1, Thr^3, Cys(Acm)^7)-CCT
biological activity [1]: 7800 MRC U/mg
Stability (ratio of eluted peak area A after heating to area B without heat treatment) [2]: 82%

(Oct^1, Cys^7)-CCT
biological activity, in words, compared with Example 1 [1]: substantially equal to those of (Oct^1, Cys(CA)^7)-CCT of Example 1
stability, in words, compared with Example 1 ([2]; measured as in Example 1): substantially equal to those of (Oct^1, Cys(CA)^7)-CCT of Example 1

(Oct^1, Thr^3, Cys(CA)^7)-CCT
biological activity [1]: 7800 MRC U/mg
Stability (ratio of eluted peak area A after heating to area B without heat treatment) [2]: 95%

(Oct^1, Cys(Acm)^7)-ECT
biological activity [1]: 5400 MRC U/mg

(Oct^1, Cys(Acm)^7)-CCT
biological activity [1]: 5500 MRC U/mg

(Oct^1, Cys(CA)^7)-CCT
biological activity, in words, compared with Example 1 [1]: equal to that obtained in Example 1
biological activity [1]: 5400 MRC U/mg
Stability (ratio of eluted peak area A after heating to area B without heat treatment) [2]: 95%
